Experiment: immediate solubility in water
Assay type: physicochemical
Details: ambient or moderate temperature (typically from 20 to 40° C.)
Method: Another disadvantage of the prior process by crystallization was that, in order to obtain an appropriate concentration of active principle in the contrast agent, the dissolution of the crystalline compound B1 (solid crystalline ioxilan, denoted B1; compound B of FIG. 1 is compound B1) required heating at high temperature (80° C.). This is because the immediate solubility of B1 in water at ambient or moderate temperature (typically from 20 to 40° C.) was of the order of 50 mg of iodine/ml.
The atomized compound B2 is soluble at ambient or moderate temperature. It is possible, starting from the compound B2, to obtain an appropriate pharmaceutical solution without needing to heat at high temperature. The immediate solubility of B2 in water at ambient or moderate temperature, of the order of at least 500 mg of iodine/ml and typically of approximately 500 mg of iodine/ml, makes it possible to obtain an injected contrast agent having a concentration of 350 to 450 mg of iodine/ml, for example 350, 380 or 400 mg of iodine/ml.

For `CC(=O)N(CC(O)CO)c1c(I)c(C(=O)NCCO)c(I)c(C(=O)NCC(O)CO)c1I` (stereo not shown) [B1, 5-[N-(2,3-dihydroxypropyl)acetamido]-2,4,6-triiodo-N-(2,3-dihydroxypropyl)-N′-(2-hydroxyethyl)isophthalamide], the “immediate solubility in water” value was ~50 mg of iodine/ml.

— patent publication US20090143471A1, “Process for the Atomization of Ioxilan” (GUERBET, priority 2006, published 2009)
